21 molecules from patent US20100113276A1, “USE OF N2-PHENYLAMIDINES AS HERBICIDES” (BAYER CROPSCIENCE AG, priority 2007, published 2010) can be followed below.

This data set in a line: log P by HPLC on reversed-phase column (C18), EEC Directive 79/831 Annex V.A8. In kind it is physicochemical. The following applies: C18, 40° C.; for log p HCO2H: aqueous formic acid / acetonitrile; for log p H3PO4: 0.1% aqueous phosphoric acid / acetonitrile. The method, then: The log P data were determined in accordance with the EEC Directive 79/831 Annex V.A8 by HPLC (High Performance Liquid Chromatography) on a reversed-phase column (C18) using the following methods: […]
Calibration was carried out with the help of unbranched alkan-2-ones (consisting of 3 to 13 or 16 carbon atoms) with known logP values (determination of the logP values via the retention times by means of linear interpolation between two subsequent alkanones).

In turn, `Cc1cc(Oc2ccc(Br)c(C(C)C)c2)c(Cl)cc1N=CN(C)C(C)C` [compound 591] returned a log p acidic of 3.21 and a log p neutral of 6.92.
Turning to `CCC(C)N(C)C=Nc1cc(Cl)c(Oc2ccc(Cl)c(C(C)(C)C)c2)cc1C` (centres unmarked) [compound 579], the log p acidic was determined as 3.19, the “log p HCO2H” value was 3.19 and the log p neutral came to 7.36.
Regarding `CCN(C)C=Nc1cc(Cl)c(Oc2ccc(Br)c(C(C)C)c2)cc1C` [compound 589], the “log p HCO2H” value is 2.84 and the log p neutral came out at 6.58.
The corresponding values for `Cc1cc(Oc2ccc(Cl)c(C(F)(F)F)c2)c(C)cc1N=CN1CCCCC1` [compound 36] are 2.59 and 6.36.
In the case of `Cc1cc(Oc2cc(F)cc(Br)c2)c(C)cc1N=CN(C)C(C)C` [compound 321], the log p acidic was determined as 2.37 and the log p neutral amounted to 6.21.
Regarding `CCN(C)C=Nc1cc(C)c(Oc2cccc(C(C)(C)C)c2)cc1Cl` [compound 870], the “log p H3PO4” value turned out to be 2.76, the “log p HCO2H” value is 2.55 and the log p neutral came out at 5.79.
In the case of `Cc1cc(N=CN(C)C)c(Cl)cc1Oc1ccc(Cl)c(C(C)(C)C)c1` [compound 902], the “log p H3PO4” value amounted to 1.57, the “log p HCO2H” value is reported as 2.65 and the log p neutral is reported as 6.11.
In the case of `Cc1cc(N=CN(C)C(C)C)c(Cl)cc1Oc1ccc(Cl)c(C(F)(F)F)c1` [compound 894], the “log p H3PO4” value came out at 1.73 and the “log p HCO2H” value turned out to be 2.55.
Turning to `FC(F)(F)c1cc(Oc2cc(Cl)c(N=CN3CCCCC3)cc2C(F)(F)F)ccc1Cl` [compound 951], the “log p H3PO4” value was 3.03, the “log p HCO2H” value was found to be 3.42 and the log p neutral came to 6.2.
The molecule `CCN(C)C=Nc1cc(Cl)c(Oc2nc(C3(Cl)CC3)ns2)cc1C` [compound 612] yielded a log p acidic of 1.72.
`CCN(C)C=Nc1cc(C)c(Oc2ccc(Cl)c(C(C)(C)C)c2)cc1C` [compound 50] returned a log p acidic of 2.69 and a log p neutral of 5.96.
On to `COc1cc(Oc2ccc(Cl)c(C(F)(F)F)c2)c(OC)cc1N=CN(C)C(C)C` [compound 987], for which the log p acidic was found to be 2.35 and the log p neutral is recorded as 4.5.
As to `CCN(C)C=Nc1cc(C)c(Oc2cc(Cl)cc(C(C)C)n2)cc1C` [compound 407], the log p acidic worked out at 2.18.
Take `CCN(C)C=Nc1cc(Cl)c(Oc2nc(C(C)(C)C)ns2)cc1C` [compound 608]: the log p acidic is listed as 2.01, the “log p HCO2H” value amounted to 2.01 and the log p neutral is 5.31.
`CC(C)N(C)C=Nc1cc(Cl)c(Oc2ccc(Cl)c(C(C)(C)C)c2)cc1Cl` [compound 812]: the “log p H3PO4” value is 3.35, the “log p HCO2H” value was 3.31 and the log p neutral stood at 6.81.
Turning to `CCN(C)C=Nc1cc(C(F)(F)F)c(Oc2ccc(Cl)c(C(F)(F)F)c2)cc1Cl` [compound 948], the “log p H3PO4” value was 2.87, the “log p HCO2H” value is reported as 2.98 and the log p neutral amounted to 5.74.
`CCc1cc(Oc2cc(C)c(N=CN(C)CC)cc2Cl)ccc1Cl` [compound 583]: the “log p HCO2H” value was 2.78 and the log p neutral amounted to 6.09.
`CCN(C)C=Nc1cc(Cl)c(Oc2ccc(Cl)c(C(C)(C)C)c2)cc1Cl` [compound 811]: the “log p H3PO4” value was 3.16, the “log p HCO2H” value was found to be 3.17 and the log p neutral is 6.64.
As to `CCN(C)C=Nc1cc(F)c(-c2ccc(Cl)cc2)cc1C` [compound 664], the “log p H3PO4” value is listed as 2.13.
Turning to `CCN(C)C=Nc1cc(C(F)(F)F)c(Oc2ccc(Cl)c(C(C)(C)C)c2)cc1Cl` [compound 944], the “log p H3PO4” value is recorded as 3.35, the “log p HCO2H” value is reported as 3.39 and the log p neutral was found to be 6.63.
Molecule `Cc1cc(Oc2cc(Cl)cc(C(F)(F)F)c2)c(Cl)cc1N=CN1CCCCC1` [compound 568] came in with a log p acidic of 2.86.
